# Test results: ChEMBL document CHEMBL1949518, “Synthesis and biological evaluation of some new 2-pyrazolines bearing benzene sulfonamide moiety as potential anti-inflammatory and anti-cancer agents” (Eur J Med Chem, 2011)
# Test system: UO-31
# Test: Antiproliferative activity against human UO31 cells assessed as cell growth at 10^-5 M after 48 hrs by SRB assay relative to control
# Assay type: functional
# Conditions: UO-31, 48 h, read-out: Activity
compound,measurement,value
COc1ccc(C2CC(c3c(O)cc(C)c(Cl)c3C)=NN2c2ccc(S(N)(=O)=O)cc2)cc1 (stereo unspecified),growth at 10 µM,93.3%
